The source of these data is patent publication US20100016340A1, “PHARMACEUTICAL COMPOUNDS” (Astex Therapeutics Limited, priority 2006, published 2010).

SMILES strings stand for the structures. Counter-ions that a name gives are not always drawn.

The target of one assay is T1, PKB-PIF (Homo sapiens, UniProt P31751).
T1 construct: made in house
As to the kind of experiment: Measurement of PKB kinase inhibitory activity (IC50), 33P-ATP phosphocellulose filter assay. The class given is biochemical. The following applies: 0.6 nM enzyme, 30 μM ATP, 25 μM AKTide-2T substrate, 20 minutes; read-out: IC50, concentration of test compound required to inhibit 50% of the PKB activity. The method, then: The inhibition of protein kinase B (PKB) activity by compounds can be determined essentially as described by Andjelkovic et al. (Mol. Cell. Biol. 19, 5061-5072 (1999)) but using a fusion protein described as PKB-PIF and described in full by Yang et al (Nature Structural Biology 9, 940-944 (2002)). […] A final concentration of 0.6 nM enzyme is used in a buffer that includes 20 mM MOPS pH 7.2, 30 μM ATP/γ^33P-ATP and 25 μM substrate. Compounds are added in DMSO solution to a final DMSO concentration of 2.5%. The reaction is allowed to proceed for 20 minutes before addition of excess orthophosphoric acid to quench activity. The reaction mixture is transferred to a phosphocellulose filter plate where the peptide binds and the unused ATP is washed away. After washing, scintillant is added and the incorporated activity measured by scintillation counting.
The % inhibition of the PKB activity is calculated and plotted in order to determine the concentration of test compound required to inhibit 50% of the PKB activity (IC50).

Another assay has as its target T2, PKA catalytic domain (Homo sapiens, UniProt P17612).
T2 construct: using the PKA catalytic domain from Upstate Biotechnology (#14-440); purchased Upstate Biotechnology 14-440
As to the kind of experiment: Measurement of PKA kinase inhibitory activity (IC50), 33P-ATP filter plate assay. The class given is biochemical. The following applies: 1 nM enzyme, 40 μM ATP, 20 minutes; read-out: IC50, concentration of test compound required to inhibit 50% of the PKA activity. The method, then: Compounds of the invention can be tested for PK inhibitory activity using the PKA catalytic domain from Upstate Biotechnology (#14-440) and the 9 residue PKA specific peptide ([…]), also from Upstate Biotechnology (#12-257), as the substrate. A final concentration of 1 nM enzyme is used in a buffer that includes 20 mM MOPS pH 7.2, 40 μM ATP/γ^33P-ATP and […] substrate. Compounds are added in dimethylsulphoxide (DMSO) solution to a final DMSO concentration of 2.5%. The reaction is allowed to proceed for 20 minutes before addition of excess orthophosphoric acid to quench activity. Unincorporated γ^33P-ATP is then separated from phosphorylated proteins on a Millipore MAPH filter plate. The plates are washed, scintillant is added and the plates are then subjected to counting on a Packard Topcount.
The % inhibition of the PKA activity is calculated and plotted in order to determine the concentration of test compound required to inhibit 50% of the PKA activity (IC50).

T1 sequence (P31751 with tags, fused parts or gaps limits assumed): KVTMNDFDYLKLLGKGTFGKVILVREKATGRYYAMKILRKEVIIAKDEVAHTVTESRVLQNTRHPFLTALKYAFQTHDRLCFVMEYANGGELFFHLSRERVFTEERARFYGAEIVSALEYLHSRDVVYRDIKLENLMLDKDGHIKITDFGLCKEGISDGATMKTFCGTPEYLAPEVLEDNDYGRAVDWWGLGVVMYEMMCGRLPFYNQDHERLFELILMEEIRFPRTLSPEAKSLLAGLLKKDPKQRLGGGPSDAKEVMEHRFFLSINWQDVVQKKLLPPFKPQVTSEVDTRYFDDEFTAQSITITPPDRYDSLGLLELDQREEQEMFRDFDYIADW

Consider `NCC1(c2ccc(OC(F)(F)F)cc2)CCN(c2ncnc3[nH]c(=O)[nH]c23)CC1` [Example 10, 6-[4-Aminomethyl-4-(4-trifluoromethoxyphenyl)piperidin-1-yl]-7,9-dihydropurin-8-one], for which, at PKB-PIF, the IC50 was less than 1 µM.
As to `NCC1(c2cccc(-c3ccccc3)c2)CCN(c2ncnc3[nH]ccc23)CC1` [Example 4, C-[4-Biphenyl-3-yl-1-(7H-pyrrolo[2,3-d]pyrimidin-4-yl)piperidin-4-yl]methylamine], the IC50 on PKA catalytic domain was less than 10 µM; at PKB-PIF, less than 1 µM.
On to `COc1ccc(-c2cccc(C3(CN)CCN(c4ncnc5[nH]ccc45)CC3)c2)cc1` [Example 5, C-[4-(4′-Methoxybiphenyl-3-yl)-1-(7H-pyrrolo[2,3-d]pyrimidin-4-yl)piperidin-4-yl]methylamine], for which the IC50 on PKB-PIF is less than 1 µM.
In the case of `NC1(C(=O)NCc2ccc(Cl)cc2F)CCN(c2ncnc3[nH]c(=O)[nH]c23)CC1` [Example 7, 4-Amino-1-(8-oxo-8,9-dihydro-7H-purin-6-yl)-piperidine-4-carboxylic acid 4-chloro-2-fluoro-benzylamide], the figures for the IC50 at PKA catalytic domain and at PKB-PIF were less than 10 µM and less than 1 µM, respectively.
In the case of `CC(C)(C)c1ccc(CC2(N)CCN(c3ncnc4[nH]ncc34)CC2)cc1` [Example 13, 4-(4-tert-Butyl-benzyl)-1-(1H-pyrazolo[3,4-d]pyrimidin-4-yl)-piperidin-4-ylamine], the IC50 on PKB-PIF was less than 1 µM.
Regarding `NC1(Cc2ccc(Cl)cc2)CCN(c2ncnc3[nH]c(=O)[nH]c23)CC1` [Example 11, 6-[4-Amino-4-(4-chlorobenzyl)piperidin-1-yl]-7,9-dihydropurin-8-one], the IC50 at PKB-PIF was less than 1 µM.
For the compound `NC1(C(=O)NCc2ccc(Cl)cc2)CCN(c2ncnc3[nH]c(=O)[nH]c23)CC1` [Example 6, 4-Amino-1-(8-oxo-8,9-dihydro-7H-purin-6-yl)-piperidine-4-carboxylic acid 4-chloro-benzylamide], the IC50 at PKA catalytic domain is less than 10 µM.
With `NC1(c2ccc(Cl)cc2)CCN(c2ncnc3[nH]c(=O)[nH]c23)CC1` [Example 12, 6-[4-Amino-4-(4-chlorophenyl)piperidin-1-yl]-7,9-dihydropurin-8-one], the IC50 at PKA catalytic domain is less than 10 µM; at PKB-PIF, less than 1 µM.
Turning to `NC1(C(=O)NCc2ccc(Cl)c(-c3ccccc3)c2)CCN(c2ncnc3[nH]ccc23)CC1` [Example 2, 4-Amino-1-(7H-pyrrolo[2,3-d]pyrimidin-4-yl)-piperidine-4-carboxylic acid (6-chloro-biphenyl-3-ylmethyl)-amide hydrochloride], the IC50 at PKB-PIF was less than 1 µM.
